Results on two compounds are retold here after patent EP1726305A1, “Zinc salt of omeprazole and its enantiomers” (Ratiopharm GmbH, priority 2005, dated 2006).

Holding throughout (format): physicochemical
Data set [1] in a line: Solubility of saturated solutions in aqueous media, HPLC/UV. The following applies: for solubility thermodynamic at 0.5 h: saturated solution, n=1, 30 min ultrasound, read-out: Löslichkeit; for Löslichkeit: 0.5 h. The protocol:
(§1) Insbesondere wurde zur Bestimmung der Schüttdichte jeweils etwa 250 ml Substanz, möglichst erschütterungsfrei in einen 250 ml Meßzylinder des Schütt-Stampf-Volumeters (Erweka SVM 22, Ser. Nr. 108.480.446) gefüllt und die Masse bestimmt (Schüttgewicht). Anschließend wurde der Meßzylinder 1250 Stampfvorgängen ausgesetzt, und das Stampfvolumen wurde abgelesen. Die Werte für die Schütt- bzw. Stampfdichte erhält man durch Division der Einwaage durch die jeweiligen Volumenwerte. Die Bestimmung wurde dreifach durchgeführt und aus den Einzelergebnissen jeweils der Mittelwert gebildet. Die Löslichkeit wurde bei Zimmertemperatur (25°C) bei verschiedenen pH-Werten untersucht, indem festes Material in den jeweiligen Medien durch Ultraschall und Schütteln soweit als möglich gelöst wurde. Die Proben wurden filtriert und über HPLC analysiert und mittels UV-Detektion vermessen.
Die Löslichkeit des Zinksalzes des (-)-Enantiomers des Omeprazols und des Magnesiumsalzes des (-)-Enantiomers des Omeprazols wurde wie folgt bestimmt. In den unten aufgeführten Medien wurden gesättigte Lösungen (n=1) hergestellt, die nach 30 Minuten Ultraschallbehandlung noch einen deutlichen Bodensatz zeigten. Der Überstand der gesättigten Lösungen wurde über einen Membranfilter (0,45µm, Millex HV 25 mm, Millipore) filtriert und die klare Lösung mittels einer HPLC-Methode auf den Gehalt des gelösten Salzes untersucht. (Reversed Phase Chromatographie, Gradientenmodus, Säule: Luna C18(2), 150 x 3 mm, Phenomenex, Eluent 1: 10mM Tris-(hydroxymethyl)-aminomethan-Puffer pH 9.0, Eluent 2 : Acetonitril).
Das Zinksalz des (-)-Enantiomers des Omeprazols wurde gemäß Beispiel 1 vorstehend hergestellt, das Magnesiumsalz des (-)-Enantiomers des Omeprazols gemäß der Offenbarung der WO 94/27988.

Data set [2] is described as follows: Water content by Karl Fischer titration (Ph.Eur. 2.5.32). The conditions noted are these: oven temperature 130 °C. An excerpt:
Während das Magnesiumsalz als Trihydrat vorliegt und daher per se einen erheblichen Wassergehalt von etwa 6,23% aufweist, ist der Wassergehalt des Zinksalzes des (-)-Enantiomers des Omeprazols ausgesprochen gering und liegt bei nur etwa 0,8%, was ebenfalls einen überraschenden Vorteil des Zinksalzes des (-)-Enantiomers des Omeprazols ausmacht. Diese Messungen erfolgten mittels Karl-Fischer-Titration gemäß Ph.Eur. 2.5.32 mit dem Gerät Aqua 40.00 (Fa. ECH Halle). Das Gerät war ausgestattet mit einem Ausheizofen für Feststoffproben. Die Ausheiztemperatur für die untersuchte substanz betrug 130 °C: Als KF-Reagenz wurde eingesetzt Hydranal (Coulomat AG, Riedel-de Haen. Als Standard wurde verwendet Natriumtartrat-dihydrat (Apura, Merck).

Data set [3] is described as follows: Bulk density and tapped density (Ph.Eur. 2.9.15, Erweka SVM 22 volumeter, 1250 taps). The conditions noted are these: mean of three determinations; for Stampfdichte: after 1250 taps. The protocol:
Sofern nichts anderes angegeben ist, erfolgt die Bestimmung der Schüttdichte und Stampfdichte nach Ph.Eur. 5.0 General Notices 2.9.15.
as §1
Auf folgende Art und Weise wurde die Schüttdichte und die Stampfdichte des nach Beispiel 1 hergestellten Zinksalzes des (-)-Enantiomers des Omeprazols bestimmt und mit den auf entsprechende Art und Weise bestimmten Werten des Magnesiumsalzes des (-)-Enantiomers des Omeprazols verglichen. Das Magnesiumsalz des (-)-Enantiomers des Omeprazols wurde entsprechend der Offenbarung der WO 94/27988 hergestellt.
Zur Bestimmung der Schüttdichte wurden jeweils 250 ml Substanz möglichst erschütterungsfrei in einen 250 ml Meßzylinder des Schütt-Stampf-Volumeters (Erweka SVM 22, Ser. Nr. 108.480.446) gefüllt und die Masse bestimmt (Schüttgewicht). Anschließend wurde der Meßzylinder 1250 Stampfvorgängen ausgesetzt, und das Stampfvolumen wurde abgelesen. Die Werte für die Schütt- bzw. Stampfdichte erhält man durch Division der Einwaage durch die jeweiligen Volumenwerte. Die Bestimmung wurde dreifach durchgeführt und aus den Einzelergebnissen jeweils der Mittelwert gebildet. Tabelle 1

In brackets after ≈: the same amount, converted by molar mass. Where two headings read alike, the source gives them in different places.

For the compound `COc1ccc2nc([S@@+]([O-])Cc3ncc(C)c(OC)c3C)[nH]c2c1` [Magnesiumsalz des (-)-Enantiomers des Omeprazols], the solubility thermodynamic at 0.5 h in data set [1] (demineralised water, dem. Wasser) is 930 µg/mL (≈ 2690 µM); in data set [1] (usp buffer, pH 6, aqueous buffer, USP-Puffer pH 6,0), 780 µg/mL (≈ 2260 µM); in data set [1] (usp buffer, pH 6, aqueous buffer, USP-Puffer pH 6,8) it was 900 µg/mL (≈ 2610 µM); in data set [1] (usp buffer, pH 7, aqueous buffer, USP-Puffer pH 7,4) it was 890 µg/mL (≈ 2580 µM). Moreover, the Wassergehalt in data set [2] is ~6,23%. In addition, the Stampfdichte in data set [3] is given as 242,68 g/l. Further, the Schüttdichte in data set [3] is 199,00 g/l.
Turning to “Zinksalz des (-)-Enantiomers von Omeprazol [Zinksalz des (-)-Enantiomers des Omeprazols]”, the Löslichkeit in data set [1] (demineralised water) was 0,02 mg/ml; in data set [1] (usp buffer, pH 6), 0,07 mg/ml; in data set [1] (usp buffer, pH 7), 0,04 mg/ml. In data set [2], the Wassergehalt is on record as ~0,8%. Further, the Stampfdichte in data set [3] is on record as 481,59 g/l. In addition, the Schüttdichte in data set [3] was 415,62 g/l.
